Data: paper PMC7835349 (Communications Biology, 2021)
Values joined by “and” are separate entries in the source; they are usually repeats but may differ in a detail not shown here. Equal values may be shown once.

Tested on: telemetered dogs
Test: Conscious dog telemetry (QRS amplitude and other cardiovascular parameters, tolerability)
[1] = dog, 0.2 mg/kg 0.5h infusion, -1.25 h, 0.2 mg/kg
[2] = dog, 0.85 mg/kg 0.5h infusion, 0.5 h, 0.85 mg/kg
[3] = dog, 0.85 mg/kg 0.5h infusion, 0.75 h, 0.85 mg/kg
[4] = dog, 0.85 mg/kg 0.5h infusion, 1 h, 0.85 mg/kg
[5] = dog, 0.85 mg/kg 0.5h infusion, 1.5 h, 0.85 mg/kg
[6] = dog, 0.85 mg/kg 0.5h infusion, 2 h, 0.85 mg/kg
[7] = dog, 0.85 mg/kg 0.5h infusion, 3 h, 0.85 mg/kg
[8] = dog, 0.85 mg/kg 0.5h infusion, 4 h, 0.85 mg/kg
[9] = dog, 0.85 mg/kg 0.5h infusion, 6 h, 0.85 mg/kg
[10] = dog, 0.85 mg/kg 0.5h infusion, 8 h, 0.85 mg/kg
[11] = dog, 0.85 mg/kg 0.5h infusion, 12 h, 0.85 mg/kg
[12] = dog, 0.85 mg/kg 0.5h infusion, 16 h, 0.85 mg/kg
[13] = dog, 0.85 mg/kg 0.5h infusion, 22 h, 0.85 mg/kg
[14] = dog, 0.85 mg/kg 0.5h infusion, -0.75 h, 0.85 mg/kg
[15] = dog, 0.85 mg/kg 0.5h infusion, -1 h, 0.85 mg/kg
[16] = dog, 0.85 mg/kg 0.5h infusion, -1.25 h, 0.85 mg/kg
[17] = dog, AZD4320 0.2 mg/kg, 0.5 h infusion
[18] = dog, AZD4320 0.85 mg/kg, 0.5 h infusion
[19] = dog, AZD4320 0.85 mg/kg, 3 h infusion
[20] = dog, AZD4320 1 mg/kg, 0.5 h infusion
[21] = dog, AZD4320 1.75 mg/kg, 0.5 h infusion

Q: What does the source list for `CN(CCO)CCC(CSc1ccccc1)Nc1ccc(S(=O)(=O)NC(=O)c2ccc(N3CCC(C(O)c4ccccc4-c4ccc(Cl)cc4)CC3)cc2)cc1S(=O)(=O)C(F)(F)F` (stereo not shown) [AZD4320]?
A: ECG QRS duration [1]: 37 ms and 40 ms; Left ventricular -dP/dt (mmHg/s) [1]: 3238 mmHg/s and 3347 mmHg/s and 4656 mmHg/s; QRS amplitude (% baseline) [1]: 104 % baseline and 91 % baseline and 97 % baseline; Systolic blood pressure (mmHg) [1]: 147 mmHg and 150 mmHg and 151 mmHg; QRS amplitude (% baseline) (dog, 0.2 mg/kg 0.5h infusion, -[…]): 100 % baseline; ECG PR interval [2]: 115 ms and 79 ms; ECG QRS duration [2]: 45 ms and 37 ms and 40 ms; Left ventricular -dP/dt (mmHg/s) [2]: 3662 mmHg/s and 3777 mmHg/s and 3464 mmHg/s; QRS amplitude (% baseline) [2]: 94 % baseline and 95 % baseline and 97 % baseline; Systolic blood pressure (mmHg) [2]: 155 mmHg and 158 mmHg; ECG PR interval [3]: 119 ms and 78 ms; ECG QRS duration [3]: 44 ms and 38 ms and 40 ms; Left ventricular -dP/dt (mmHg/s) [3]: 3170 mmHg/s and 3744 mmHg/s and 3322 mmHg/s; QRS amplitude (% baseline) [3]: 99 % baseline and 91 % baseline and 104 % baseline; Systolic blood pressure (mmHg) [3]: 154 mmHg and 157 mmHg; ECG PR interval [4]: 115 ms and 91 ms; ECG QRS duration [4]: 44 ms and 37 ms and 40 ms; Left ventricular -dP/dt (mmHg/s) [4]: 3366 mmHg/s and 3696 mmHg/s and 3150 mmHg/s; QRS amplitude (% baseline) [4]: 100 % baseline and 90 % baseline and 102 % baseline; Systolic blood pressure (mmHg) [4]: 135 mmHg and 151 mmHg; ECG PR interval [5]: 117 ms and 112 ms; ECG QRS duration [5]: 44 ms and 39 ms and 40 ms; Left ventricular -dP/dt (mmHg/s) [5]: 3030 mmHg/s and 3166 mmHg/s; QRS amplitude (% baseline) [5]: 78 % baseline and 86 % baseline; Systolic blood pressure (mmHg) [5]: 147 mmHg and 138 mmHg; ECG PR interval [6]: 111 ms and 87 ms; ECG QRS duration [6]: 42 ms and 36 ms and 39 ms; Left ventricular -dP/dt (mmHg/s) [6]: 2904 mmHg/s and 3371 mmHg/s; QRS amplitude (% baseline) [6]: 75 % baseline and 83 % baseline; Systolic blood pressure (mmHg) [6]: 144 mmHg and 171 mmHg; ECG PR interval [7]: 99 ms and 81 ms; ECG QRS duration [7]: 37 ms and 33 ms; QRS amplitude (% baseline) [7]: 59 % baseline and 60 % baseline; Systolic blood pressure (mmHg) [7]: 142 mmHg and 156 mmHg; ECG PR interval [8]: 93 ms and 79 ms; ECG QRS duration [8]: 36 ms and 33 ms; QRS amplitude (% baseline) [8]: 56 % baseline and 60 % baseline; Systolic blood pressure (mmHg) [8]: 128 mmHg and 137 mmHg; ECG PR interval [9]: 89 ms and 79 ms; ECG QRS duration [9]: 37 ms and 35 ms; Left ventricular -dP/dt (mmHg/s) [9]: 2074 mmHg/s and 2402 mmHg/s; QRS amplitude (% baseline) [9]: 67 % baseline and 70 % baseline; Systolic blood pressure (mmHg) [9]: 116 mmHg and 117 mmHg; ECG PR interval [10]: 88 ms and 83 ms; ECG QRS duration [10]: 37 ms and 34 ms; Left ventricular -dP/dt (mmHg/s) [10]: 2367 mmHg/s and 2612 mmHg/s; QRS amplitude (% baseline) [10]: 78 % baseline and 80 % baseline; Systolic blood pressure (mmHg) [10]: 120 mmHg and 124 mmHg; ECG PR interval [11]: 85 ms; ECG QRS duration [11]: 40 ms and 36 ms; Left ventricular -dP/dt (mmHg/s) [11]: 3043 mmHg/s and 2589 mmHg/s; QRS amplitude (% baseline) [11]: 84 % baseline and 70 % baseline; Systolic blood pressure (mmHg) [11]: 128 mmHg and 131 mmHg; ECG PR interval [12]: 102 ms and 87 ms; ECG QRS duration [12]: 42 ms and 37 ms; Left ventricular -dP/dt (mmHg/s) [12]: 3119 mmHg/s and 2829 mmHg/s; QRS amplitude (% baseline) [12]: 98 % baseline and 70 % baseline; Systolic blood pressure (mmHg) [12]: 130 mmHg and 147 mmHg; ECG PR interval [13]: 112 ms and 84 ms; ECG QRS duration [13]: 44 ms and 36 ms; Left ventricular -dP/dt (mmHg/s) [13]: 3111 mmHg/s and 3851 mmHg/s; QRS amplitude (% baseline) [13]: 101 % baseline and 78 % baseline; Systolic blood pressure (mmHg) [13]: 132 mmHg and 149 mmHg; ECG PR interval [14]: 111 ms and 99 ms; ECG QRS duration [14]: 45 ms and 39 ms; Left ventricular -dP/dt (mmHg/s) [14]: 3973 mmHg/s and 3847 mmHg/s and 2891 mmHg/s; QRS amplitude (% baseline) [14]: 100 % baseline and 105 % baseline and 103 % baseline; Systolic blood pressure (mmHg) [14]: 162 mmHg and 159 mmHg; ECG PR interval [15]: 108 ms and 98 ms; ECG QRS duration [15]: 44 ms and 36 ms and 39 ms; Left ventricular -dP/dt (mmHg/s) [15]: 3612 mmHg/s and 3810 mmHg/s and 3070 mmHg/s; QRS amplitude (% baseline) [15]: 101 % baseline and 100 % baseline and 107 % baseline; Systolic blood pressure (mmHg) [15]: 149 mmHg and 163 mmHg; ECG PR interval [16]: 110 ms and 96 ms and 89 ms; ECG QRS duration [16]: 44 ms and 37 ms and 40 ms; Left ventricular -dP/dt (mmHg/s) [16]: 3200 mmHg/s and 3594 mmHg/s and 2862 mmHg/s; QRS amplitude (% baseline) [16]: 100 % baseline and 105 % baseline; Systolic blood pressure (mmHg) [16]: 142 mmHg and 165 mmHg and 139 mmHg; QRS amplitude (% baseline) (dog, 0.85 mg/kg 0.5h infusion, -[…]): 100 % baseline; tolerability (dog, 1 mg/kg AZD4320): not tolerated; Effects [17]: No effect level; Tolerated? [17]: Yes; Effects other than QRS amplitude [18]: ↓SBP, ↑HR, ↓dP/dt-, ↓PR interval, ↓QRS interval, ↓LVEDP; Tolerated? [18]: Yes; ↓QRS amplitude (% decrease) [18]: 49%; Tolerated? [19]: Yes; ↓QRS amplitude (% decrease) [19]: 32%; Effects other than QRS amplitude [20]: poorly tolerated; Tolerated? [20]: No; ↓QRS amplitude (% decrease) [20]: 75%; Effects other than QRS amplitude [21]: ↓SBP, ↑HR, ↓dP/dt-, ↓PR interval, ↓QRS interval, ↓LVEDP; Tolerated? [21]: No; ↓QRS amplitude (% decrease) [21]: 94%; cardiovascular changes (preclinical development, Supplementary Fig. 1a, b): dose-dependent decreases in QRS amplitude, QRS duration & PR intervals, blood pressure, left ventricular pressure and contractility
